Data taken from paper PMC8957230 (ADMET & DMPK, 2019).
Converted amounts (≈) assume the structure as drawn. Like-named read-outs stand apart in the source and are kept apart here. Marks after values point to notes of the source that are not given here. One block for each compound: values may come before it.

How the values were obtained:
[1] = cited from earlier work
[2] = design: method as in earlier work; conditions: 5 mM sodium taurocholate and […] lecithin in pH 6.8 phosphate buffer; cited from earlier work
[3] = cited from earlier work; remark: listed apart in the source
[4] = Ketoconazole solubility by pH adjustment with HCl (pH-solubility profile); format: physicochemical; conditions: 25 °C
Experimental: Multiple vials were prepared using different concentration of HCl solutions (0.001M to 1M) so that different pH values could be attained, and, when needed, more amount of free base was added to maintain excess solid in the vials. […] Additional HCl solution and excess ketoconazole were added to the suspension in vial and shaken for another pH point, and the process was repeated until enough points on the pH scale were obtained. More than one suspension in different vials were used to generate a complete profile.

[5] = Solubility in buffered/non-buffered media
Experimental: Cocrystal solubilities were determined at pH 1 solution (0.1 M HCl), pH 2 HCl buffer), pH 5 acetate buffer and pH 8 phosphate buffer. Buffers were prepared according to the United States Pharmacopeia (USP) procedures. […] Aliquots were filtered by 0.45-micron PVDF filter and analyzed by HPLC. The solid phase was analyzed by Raman spectroscopy.

[6] = Ketoconazole solubility with fumaric/succinic acid and 1:1 physical mixtures with coformers; format: physicochemical; conditions: 1:1 ketoconazole-fumaric acid mixture, 25 °C
Experimental: A series of solutions with different concentrations of acids were prepared and 3 mL quantities of these solutions were distributed in separate glass vials. […] Aliquots of suspensions (0.5-0.7 mL each) were, however, withdrawn from each vial after 4, 24 and 96 h of shaking for analysis of drug concentration by HPLC according to the method described earlier. For the analysis of solid phase, contents of the vials were transferred to 3-mL Eppendorf tubes and centrifuged using Beckman GS 6R centrifuge at 2000 RPM for 5 min. After centrifugation, the supernatants were removed and solid contents were dried in a vacuum oven at 50 °C, which were then analyzed by DSC and Raman spectroscopy.
In this study, different quantities of the mixtures (12 mg to 350 mg) were added to different 20 mL glass vials, and then 5 mL of water was added to each vial. Thus, the volume of water in each vial remained the same and only the amount of material added differed. […] Samples were withdrawn from each vial at 4, 24 and 96 h to measure drug concentration, as described earlier. The solid phase of the vials was analyzed using Raman spectroscopy to determine the identity of equilibrium species. From some of the vials, solid contents were separated by centrifugation, dried in a vacuum oven, and then analyzed by DSC.

[7] = Intrinsic dissolution rate; format: physicochemical; design: key: -: Extremely low dissolution rate (practically zero) that could not be calculated with accuracy; conditions: 25 °C
Experimental: For each determination, 100 mg of powder was compressed into pellet by Carver press at 1 ton pressure for 10 seconds. The apparatus with the exposed surface of the material was immersed into 250 mL of dissolution medium and rotated at 200 RPM. pH of dissolution media during the intrinsic dissolution testing were maintained by two different methods: in one case, unbuffered media were used where either 0.1 M HCl or 0.1 M NaOH were added to keep pH constant at 3, 4 or 5 (±0.15), and in the second case, pH 3, 4 and 5 phthalate buffers prepared according to the USP were used as dissolution media to keep pH constant. Two mL of aliquot was withdrawn at each of 5, 15, 30, 60, 90 and 120 min time points, filtered by 0.45-micron PVDF filter, and analyzed by HPLC for drug concentration.

[8] = average of two
Experimental: Essentially, in the present investigation, about 0.5 mL of buffer was added to 200 mg of powder in a small vial and mixed by vortexing, and then pH was recorded when an equilibrium was reached after 5-10 min of mixing.

[9] = excess cocrystal in water, 25 °C
[10] = initial pH 1.1 (0.1 M HCl), 25 °C
[11] = initial pH 2.1 HCl/KCl buffer, 25 °C
[12] = initial pH 5.0 acetate buffer, 25 °C
[13] = initial pH 7.9 phosphate buffer, 25 °C
[14] = buffers, pH 3 phthalate, 0.5 cm^2
[15] = buffers, pH 4 phthalate, 0.5 cm^2
[16] = unbuffered media, pH 3 kept constant with HCl or NaOH, 0.5 cm^2
[17] = unbuffered media, pH 4 kept constant with HCl or NaOH, 0.5 cm^2
[18] = pH 3 phthalate buffer, initial (bulk) pH 2.93
[19] = pH 5 neutralized phthalate buffer, initial (bulk) pH 4.97
[20] = pH 7 phosphate buffer, initial (bulk) pH 6.97

Compound: CC(=O)Nc1nc2c(Oc3cc(-c4ccc(C(F)(F)F)cc4)ncn3)cccc2s1 [AMG 517]
pKa [1]: 0.68
Solubility in FaSIF [2]: 5 µg/mL (≈ 11.6 µM)

Compound: CC(C)(C)C(=O)OCOP(=O)(COCCn1cnc2c(N)ncnc21)OCOC(=O)C(C)(C)C [adefovir dipivoxil]
Solubility in water [3]: 790 µM
pH of saturated solutions [3]: 6.7

Compound: CCOc1ccccc1C(N)=O [ethenzamide]
Solubility in water [3]: 0.80 to 0.85 µg/mL

Compound: O=C(O)/C=C/C(=O)O [fumaric acid]
pKa, first ionization [1]: 2.74
pKa, second ionization [1]: 4.17

Compound: CC(=O)N1CCN(c2ccc(OC[C@H]3CO[C@](Cn4ccnc4)(c4ccc(Cl)cc4Cl)O3)cc2)CC1.Cl.Cl [ketoconazole dihydrochloride salt, ketoconazole dihydrochloride]
Solubility (in words) [3]: very high solubility

solubility ([4]; pH of suspension 3.35, pH lowered using HCl, listed as ketoconazole base): 5429 µg/mL (≈ 10200 µM)
solubility ([4]; suspension in distilled water, pH adjusted with HCl, pH 3.1, aqueous buffer, thermodynamic from solid, pH 3.1, pH adjusted with HCl, read-out: Highest solubility measured): 148000 µg/mL (≈ 279000 µM)
solubility ([4]; suspension in distilled water, pH adjusted with HCl, pH 3.1, aqueous buffer, thermodynamic from solid, pH of suspension 3.1, pH lowered using HCl, read-out: Solubility): 148000 µg/mL (≈ 279000 µM)
solubility ([4]; suspension in distilled water, pH adjusted with HCl, pH 3.35, aqueous buffer, thermodynamic from solid, pH of suspension 3.35, pH lowered using HCl, read-out: Solubility): 5460 µg/mL (≈ 10300 µM)
solubility ([4]; suspension in distilled water, pH adjusted with HCl, pH 3.37, aqueous buffer, thermodynamic from solid, pH of suspension 3.37, pH lowered using HCl, read-out: Solubility): 7100 µg/mL (≈ 13400 µM)
solubility ([4]; suspension in distilled water, pH adjusted with HCl, pH 3.58, aqueous buffer, thermodynamic from solid, pH of suspension 3.58, pH lowered using HCl, read-out: Solubility): 3420 µg/mL (≈ 6440 µM)
solubility ([4]; suspension in distilled water, pH adjusted with HCl, pH 3.81, aqueous buffer, thermodynamic from solid, pH of suspension 3.81, pH lowered using HCl, read-out: Solubility): 1930 µg/mL (≈ 3630 µM)
solubility ([4]; suspension in distilled water, pH adjusted with HCl, pH 4.28, aqueous buffer, thermodynamic from solid, pH of suspension 4.28, pH lowered using HCl, read-out: Solubility): 729 µg/mL (≈ 1370 µM)
solubility ([4]; suspension in distilled water, pH adjusted with HCl, pH 4.48, aqueous buffer, thermodynamic from solid, pH of suspension 4.48, pH lowered using HCl, read-out: Solubility): 345 µg/mL (≈ 649 µM)
solubility ([4]; suspension in distilled water, pH adjusted with HCl, pH 4.56, aqueous buffer, thermodynamic from solid, pH of suspension 4.56, pH lowered using HCl, read-out: Solubility): 354 µg/mL (≈ 666 µM)
solubility ([4]; suspension in distilled water, pH adjusted with HCl, pH 4.95, aqueous buffer, thermodynamic from solid, pH of suspension 4.95, pH lowered using HCl, read-out: Solubility): 178 µg/mL (≈ 335 µM)
solubility ([4]; suspension in distilled water, pH adjusted with HCl, pH 4.99, aqueous buffer, thermodynamic from solid, pH of suspension 4.99, pH lowered using HCl, read-out: Solubility): 175 µg/mL (≈ 329 µM)
solubility ([4]; suspension in distilled water, pH adjusted with HCl, pH 7.12, aqueous buffer, thermodynamic from solid, pH of suspension 7.12, pH lowered using HCl, read-out: Solubility): 5 µg/mL (≈ 9.41 µM)
solubility ([4]; suspension in distilled water, pH adjusted with HCl, pH 7.23, aqueous buffer, thermodynamic from solid, pH of suspension 7.23, pH lowered using HCl, read-out: Solubility): 4 µg/mL (≈ 7.53 µM)
solubility ([4]; suspension in distilled water, pH adjusted with HCl, pH 3.67, pH of suspension 3.67, pH lowered using HCl, read-out: Solubility): 3030 µg/mL (≈ 5700 µM)
solubility ([4]; suspension in distilled water, pH adjusted with HCl, pH 3.71, pH of suspension 3.71, pH lowered using HCl, read-out: Solubility): 2780 µg/mL (≈ 5230 µM)
solubility ([4]; suspension in distilled water, pH adjusted with HCl, pH 7.27, pH of suspension 7.27, pH lowered using HCl, read-out: Solubility): 3 µg/mL (≈ 5.65 µM)
solubility ([4]; suspension in distilled water, pH adjusted with HCl, pH 7.72, pH of suspension 7.72, pH lowered using HCl, read-out: Solubility): 2 µg/mL (≈ 3.76 µM)
solubility ([4]; suspension in distilled water, pH adjusted with HCl, pH 7.92, pH of suspension 7.92, pH lowered using HCl, read-out: Solubility): 3 µg/mL (≈ 5.65 µM)
solubility ([4]; suspension in distilled water, pH adjusted with HCl, pH 8.49, pH of suspension 8.49, pH lowered using HCl, read-out: Solubility): 2 µg/mL (≈ 3.76 µM)
solubility ([4]; suspension in distilled water, pH adjusted with HCl, pH higher than 8, read-out: Intrinsic solubility of the free base (nonprotonated species)): ~2 µg/mL (≈ 3.76 µM)
solubility ([5]; 0.1 M HCl, 25 °C, pH 1.1, simulated gastric fluid, thermodynamic from solid): ~27000 µg/mL (≈ 50800 µM)
solubility ([5]; HCl/KCl buffer, 25 °C, pH 2.1, simulated gastric fluid, thermodynamic from solid): ~3400 µg/mL (≈ 6400 µM)
solubility ([5]; acetate buffer, 25 °C, pH 5, aqueous buffer, thermodynamic from solid): 130 µg/mL (≈ 245 µM)
pH after equilibration [5, 10]: ~2.9 ^*
pH after equilibration [5, 11]: ~3.6 ^*
pH after equilibration [5, 12]: 4.95
pH after equilibration [5, 13]: 7.82±0.01
solubility ([5]; phosphate buffer, pH 7.9): 1 µg/mL (≈ 1.88 µM)
solubility at 96 h ([6]; equilibrated 96 h, pH~3.7): ~3000 µg/mL (≈ 5650 µM)
solubility at 4 h ([6]; water, thermodynamic from solid, equilibrated 4 h, no conversion to cocrystal): ~7000 µg/mL (≈ 13200 µM)
Dissolution rate constant [7, 14]: 108 μg.min^-1.cm^-2
Dissolution rate constant [7, 15]: 45 μg.min^-1.cm^-2
Dissolution rate constant ([7]; buffers, pH 5 phthalate): - ^**
Dissolution rate constant [7, 16]: 106 μg.min^-1.cm^-2
Dissolution rate constant [7, 17]: 16 μg.min^-1.cm^-2
Dissolution rate constant ([7]; unbuffered media, pH 5 kept constant with HCl or NaOH): - ^**
pH h=0 (slurry pH) [8, 18]: 4.17
pH h=0 (slurry pH) [8, 19]: 5.00
pH h=0 (slurry pH) [8, 20]: 7.05
Compound: CC(=O)N1CCN(c2ccc(OCC3COC(Cn4ccnc4)(c4ccc(Cl)cc4Cl)O3)cc2)CC1 (stereo not shown) [ketoconazole]

Compound: Nc1nnc(-c2cccc(Cl)c2Cl)c(N)n1 [lamotrigine]
Solubility in water [3]: 154 µg/mL
pH of the aqueous slurries during the determination of solubility [3]: 6.8
Solubility in water ([3]; pH of ~5.5, cocrystals at 1:1 ratios): 280 µg/mL

Compound: O=C(O)CCC(=O)O [succinic acid]
pKa, first ionization [1]: 3.93
pKa, second ionization [1]: 5.30

Compound: ketoconazole-fumaric acid cocrystal
pH after equilibration [5, 10]: 2.03± 0.01
solubility ([5]; initial pH 1.1 (0.1 M HCl), 25 °C, average of three determinations): 21540 ± 550 µg/mL
pH after equilibration [5, 11]: 2.89 ± 0.02
solubility ([5]; initial pH 2.1 HCl/KCl buffer, 25 °C, average of three determinations): 3390 ± 20 µg/mL
pH after equilibration [5, 12]: 4.31 ± 0.02
solubility ([5]; initial pH 5.0 acetate buffer, 25 °C, average of three determinations): 600 ± 20 µg/mL
pH after equilibration [5, 13]: 7.17 ± 0.01
solubility ([5]; initial pH 7.9 phosphate buffer, 25 °C, average of three determinations): 3 ± 2 µg/mL
Dissolution rate constant [7, 14]: 108 μg.min^-1.cm^-2
Dissolution rate constant [7, 15]: 71 μg.min^-1.cm^-2
Dissolution rate constant ([7]; buffers, pH 5 phthalate, 0.5 cm^2): 51 μg.min^-1.cm^-2
Dissolution rate constant [7, 16]: 164 μg.min^-1.cm^-2
Dissolution rate constant [7, 17]: 124 μg.min^-1.cm^-2
Dissolution rate constant ([7]; unbuffered media, pH 5 kept constant with HCl or NaOH, 0.5 cm^2): 93 μg.min^-1.cm^-2
pH of saturated solution in water [9]: 4.1
Solubility in water (as ketoconazole equivalents) ([9]; saturated solution pH 4.1 (fumaric) / 4.2 (succinic)): 2600 µg/mL
pH h=0 (slurry pH) [8, 18]: 3.13
pH h=0 (slurry pH) ([8]; pH 4 phthalate buffer, initial (bulk) pH 3.96): 4.08
pH h=0 (slurry pH) [8, 19]: 4.23
pH h=0 (slurry pH) [8, 20]: 4.53
